Values quoted from earlier work as cited in US12551473B2, “Compositions and methods for increasing athletic performance” (VDF Futureceuticals, Inc., priority 2015, dated 2026).

Legend:
[1] = system: systolic blood pressure; details: 5.5 mmol/day, acute (1 day) and chronic (6 day), during cycling in healthy young men
[2] = system: skin blood flow; details: during cycling exercise at 55% VO2max

Compound	reduced systolic blood pressure (mean) [1] [mmHg]	skin blood flow [2]
O=[N+]([O-])O [nitrate]	6	–
CN(C)C(=O)Oc1ccc[n+](C)c1 [pyridostigmine]	–	reduces
